Consider 29 molecules from PubChem BioAssay (NCI).

Values joined by “and” are separate entries in the source; they are usually repeats but may differ in a detail not shown here. Equal values may be shown once.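 Step 1: Grow cells in 96-well plates. Step 2: Expose to compound for 48 hours at 5 concentrations. Step 3: Interpolate endpoints linearly; if unreached, use highest concentration. Abbreviation: GI50, concentration required for 50% inhibition of growth. TGI: total growth inhibition.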 A value given as a limit tells only on which side of the number the result lay.

Assay in all cases: DTP human tumour cell line panel, 48 h
Assay [1] has as its system SK-MEL-2 melanoma.
For assay [2], the system named is SF-539 CNS.
Assay [3] deals with NCI-H23 lung.
Assay [4] has as its system KM12 colon.
In assay [5] the test system is SNB-75 CNS.
Assay [6] has as its system OVCAR-3 ovarian.
Assay [7] deals with EKVX NSCLC.
Assay [8] concerns MALME-3M melanoma.
Assay [9] deals with DU-145 prostate.
Assay [10] concerns MDA-MB-231 breast.

For orientation: TGI means the concentration giving total growth inhibition. Lower therefore signals more potent growth arrest. For `COc1ccc(-c2nnc(-c3c(C)n(C)n(-c4ccccc4)c3=O)o2)cc1`, the TGI in assay [1], in [2], in assay [3], in assay [4], in [5] and in assay [6] was over 100 µM each time. In addition, the total growth inhibition concentration (TGI) in [7] and in assay [8] was over 100 µM in each case.

As to `CCCCN=C(NC#N)N(Cc1ccccc1)Cc1ccccc1`, the TGI in assay [1] is 36.8 µM; in [2], 48.2 µM; in assay [3], 77.4 µM; in assay [4], over 100 µM; in assay [5], over 100 µM; in [6] it was 64.8 µM. Further, the results for the TGI in assay [7] and in assay [8] were 74.9 µM and over 100 µM, respectively.

In the case of `COc1cc([C@H]2c3cc4c(cc3[C@H](NCc3ccc([N+](=O)[O-])cc3)C3COC(=O)[C@H]32)OCO4)cc(OC)c1O` (some centres undefined), the TGI amounted to 34.9 µM in assay [1]; 2.95 µM in [2]; 1.91 µM in assay [3]; 11.4 µM in assay [4]; 6.6 µM in assay [5]; 40 µM in [6]. The values for the TGI in assay [7] and in [8] were over 23.6 µM and 17.3 µM, respectively.

In the case of `CCC(=O)C(C)C(=O)C(=O)C(=O)OC` (centres undefined), the concentration for total growth inhibition (TGI) in [1], in assay [2], in [3], in [4], in [5] and in [6] was over 100 µM in each case. In addition, the total growth inhibition concentration (TGI) in [7] and in assay [8] was over 100 µM each time.

Regarding `COC(=O)[C@@]1(O)CC(C)C=C1C=O` (some centres undefined), the TGI in assay [1], in [2], in assay [3], in assay [4], in assay [5] and in assay [6] was over 100 µM each time. Further, the TGI in assay [7] and in [8] was over 100 µM throughout.

Take `CCO/C=C1\N=C(C(Cl)c2ccccc2)OC1=O` (centres undefined): the TGI in [1], in assay [2], in assay [3], in assay [4], in assay [5] and in [6] was over 100 µM in each case. The TGI in assay [7] and in assay [8] was over 100 µM in each case.

In the case of `CN(C(=O)C12C3(C(=O)C(C)(C)C)C4C5(C#N)C3C1(C(=O)C(C)(C)C)C5C42C(=O)C(C)(C)C)C(C)(C)C` (centres undefined), the TGI in assay [2], in assay [3], in assay [4], in assay [5], in assay [6] and in assay [7] was over 50 µM in each case. Also, in [8], the TGI is over 50 µM.

The GI50 is the concentration at which growth is held to half of that of the control. For the molecule `CC(C)(c1ccc(Oc2ccc(C#N)c(C#N)c2)cc1)c1ccc(Oc2ccc(C#N)c(C#N)c2)cc1`, the GI50 in assay [1], in assay [2], in assay [3], in assay [4], in [6] and in assay [7] was over 100 µM each time. The GI50 in assay [8] is over 100 µM. In addition, the total growth inhibition concentration (TGI) in assay [1] was over 100 µM; in assay [2], over 100 µM; in assay [3] it was over 100 µM; in [4], over 100 µM; in [5] it was 89.2 µM; in assay [6], over 100 µM. Also, the TGI in assay [7] and in [8] was over 100 µM throughout.

Consider `CC(=O)OC(C)(C)/C=C/C(=O)[C@](C)(O)[C@H]1[C@H](O)C[C@@]2(C)[C@@H]3CC=C4[C@@H](C[C@H](O)C(=O)C4(C)C)[C@]3(CO)C(=O)C[C@]12C`, for which the GI50 was 0.0339 µM in assay [1]; 0.173 µM in assay [2]; 0.621 µM in [3]; 0.703 µM in assay [4]; 0.0529 µM in assay [5]; 0.273 µM in assay [6]. In addition, the GI50 is 0.432 µM in [7] and 0.0838 µM in assay [8]. Moreover, the total growth inhibition concentration (TGI) in assay [1] was 0.416 µM and 0.104 µM; in assay [2], 0.658 µM and 0.472 µM; in [3], 14.7 µM; in [4], 32.7 µM; in [5], 0.375 µM and 0.211 µM; in [6], 0.762 µM. Besides, the total growth inhibition concentration (TGI) is 0.903 µM and 7.31 µM in assay [7]; 0.936 µM and 4.69 µM in assay [8].

Regarding `NC(=O)C(=Cc1ccc(CP(=O)(O)O)cc1)C(N)=O`, the TGI in assay [1], in assay [2], in assay [3], in [4], in assay [5] and in assay [6] was over 100 µM in each case. Further, the concentration for total growth inhibition (TGI) in [7] and in assay [8] was over 100 µM in each case.

Regarding `Nc1nc(NC2C=C(CO)C(O)C2O)c([N+](=O)[O-])c(=O)[nH]1` (centres undefined), the concentration for total growth inhibition (TGI) in assay [1], in assay [2], in assay [3], in assay [4], in assay [5] and in assay [6] was over 100 µM in each case. Besides, the TGI in assay [7] and in [8] was over 100 µM in each case.

Turning to `COc1ccc(C2=Nc3c/c(=C\c4c(O)[nH]c5ccc(Cl)cc45)ccc3=N2)cc1`, the GI50 in [2] is 1.78 µM; in assay [4], 1.22 µM; in assay [6], 1.53 µM; in assay [9], 1.63 µM. The TGI in assay [2] turned out to be 3.87 µM; in assay [4] it was 2.65 µM; in assay [6] it was 2.91 µM; in [9] it was 3.17 µM.

Take `NC(CC(=O)Nc1ccc(Cl)cc1)=Nc1ccccc1`: the TGI in [1], in assay [2], in [3], in [4], in assay [5] and in assay [6] was over 100 µM in each case. Besides, the TGI in [7] and in [8] was over 100 µM each time.

For the molecule `CCCCCCCC(=O)OCC1OC(n2cc(F)c(=O)[nH]c2=O)C(NC(=O)OCc2ccccc2)C(O)C1O` (centres undefined), the TGI was 53.5 µM in assay [1]; over 100 µM in assay [2]; over 100 µM in [3]; over 100 µM in assay [4]; over 100 µM in [5]; over 100 µM in [6]. The total growth inhibition concentration (TGI) in [7] and in assay [8] was over 100 µM in each case.

As for `O=CC(Br)C(Br)c1ccccc1` (centres undefined), the GI50 in assay [1] was 2.85 µM; in [2], 1.87 µM; in assay [3], 3.85 µM; in [4] it was 12.6 µM; in [5], 7.69 µM; in assay [6] it was 1.32 µM. The GI50 in assay [10] is 2.01 µM; in assay [9] it was 2.26 µM. For the same molecule, the TGI in assay [1] came out at 9.11 µM; in [2] it was 4.36 µM; in assay [3] it was 24.8 µM; in assay [4] it was 26 µM; in assay [5], 20.9 µM; in [6], 2.67 µM. Besides, the figures for the TGI in [10] and in assay [9] were 4.22 µM and 5.74 µM, respectively.

As for `O=c1cc(-c2ccccc2)nc(/C=C(\O)c2ccncc2)n1-c1ccccc1`, the total growth inhibition concentration (TGI) in assay [1], in assay [2], in [3], in [4], in assay [5] and in [6] was over 100 µM each time. The TGI in assay [7] and in [8] was over 100 µM each time.

With `CCCCCCCCC(O)C#CC(N)=O` (centres undefined), the concentration for total growth inhibition (TGI) in [1] worked out at 26.3 µM; in [2], 26.1 µM; in [3], 35.6 µM; in [5], 17.5 µM; in assay [6] it was 20.5 µM; in [7] it was 23.6 µM. In assay [8], this molecule registered a total growth inhibition concentration (TGI) of 31.8 µM.

With `COc1ccc(OC)c(NCC#N)c1`, the TGI in assay [1], in assay [2], in assay [3], in assay [4], in [5] and in assay [6] was over 100 µM in each case. For the same molecule, the TGI in assay [7] and in [8] was over 100 µM throughout.

With `O=c1nc(NC(c2ccccc2)(c2ccccc2)c2ccccc2)ccn1CCO`, the concentration for total growth inhibition (TGI) in [1], in [2], in assay [3], in assay [4], in [5] and in assay [6] was over 100 µM each time. The TGI in [7] and in [8] was over 100 µM throughout.

Consider `C[C@]1(C(=O)O)N[C@H](C(=O)O)CS1`, for which the GI50 in [1] is over 1000 µM; in assay [3], over 1000 µM; in assay [4] it was over 1000 µM; in assay [5], over 1000 µM; in [6], 504 µM; in assay [8] it was over 1000 µM. Besides, the GI50 in [10] was over 1000 µM. Moreover, the concentration for total growth inhibition (TGI) in assay [1], in assay [3], in assay [4], in assay [5], in assay [6] and in assay [8] was over 1000 µM in each case. The molecule further yielded a TGI in assay [10] of over 1000 µM.

For `COc1cc(C=O)c(-c2cc3c(cc2C2(C)OCCS2)OCO3)c(OC)c1OC` (centres undefined), the TGI was found to be 47.7 µM in assay [1]; 17.4 µM in [2]; 92.9 µM in assay [3]; 34 µM in assay [4]; 21.3 µM in assay [5]; 13.6 µM in [6]. Besides, the values for the TGI in assay [7] and in assay [8] were over 97 µM and 90.8 µM, respectively.

Take `Cc1ccc(-c2cc(=O)c3cc(C)c(C)c(C(=O)O)c3o2)cc1`: the TGI in assay [1] was over 100 µM; in assay [2] it was 75 µM; in assay [3] it was over 100 µM; in assay [4], over 100 µM; in [5], over 100 µM; in assay [6], over 100 µM. Further, the concentration for total growth inhibition (TGI) in assay [7] and in assay [8] was over 100 µM throughout.

Take `CSc1nc(SC)c2c(C(N)=S)[nH]nc2n1`: the total growth inhibition concentration (TGI) in assay [1] was 50.5 µM; in assay [2], 60 µM; in [3], 66.3 µM; in [4], over 100 µM; in assay [5], 76.5 µM; in assay [6] it was 57.8 µM. For the same molecule, the TGI in [7] came to 56 µM; in assay [8] it was 88 µM.

For `Cc1ccc(C(=O)N2c3ccccc3N(C)n3cccc3C2CC(=O)O)cc1` (centres undefined), the TGI in [1], in assay [2], in [3], in [4], in assay [5] and in assay [6] was over 100 µM each time. For the same molecule, the concentration for total growth inhibition (TGI) in [7] and in assay [8] was over 100 µM in each case.

With `O=C1C2CC=CCC2C(=O)C12CCc1ccccc12` (centres undefined), the concentration for total growth inhibition (TGI) in [3], in [5], in assay [6], in assay [7] and in [8] was over 100 µM throughout.

Turning to `COC(=O)c1ccc(NC(=O)c2cc(OC)c(OC)c(OC)c2)cc1`, the TGI in [1] was over 100 µM; in [2] it was 5.5 µM; in assay [4], over 100 µM; in assay [5], over 100 µM; in assay [6] it was 7.77 µM; in assay [7], over 100 µM. In assay [8], this molecule returned a total growth inhibition concentration (TGI) of over 100 µM.

For `CC1=C(C(=O)Nc2ccc([N+](=O)[O-])cc2)C(c2ccccc2O)C(C(=O)Nc2ccc([N+](=O)[O-])cc2)=C(C)N1`, the TGI worked out at 31.8 µM in assay [1]; 57.8 µM in assay [2]; 66.7 µM in assay [3]; 55 µM in assay [4]; 89 µM in [5]; 51.4 µM in assay [6]. For the same molecule, the TGI in [7] turned out to be 84.9 µM; in assay [8] it was 49.4 µM.

`CN(C)C(=S)/N=c1\ss/c(=N\C(=S)N(C)C)n1-c1ccc(Cl)cc1`: the TGI in [1], in assay [2], in assay [3], in assay [4], in [5] and in [6] was over 100 µM throughout. In [7], this molecule registered a TGI of over 100 µM.

With `CCOc1ccccc1N1C(=O)C(=O)C(c2nc3ccccc3o2)/C(=N\N)C1=O` (centres undefined), the total growth inhibition concentration (TGI) in [1], in assay [2], in assay [3], in assay [4], in assay [5] and in [6] was over 100 µM in each case. The TGI in [7] and in assay [8] was over 100 µM in each case.
